One assay concerns the target human S1P1 receptors (Homo sapiens (Human), UniProt P21453). Put plainly: Human S1P1 Receptor Calcium FLIPR Antagonist Assay (HeLa Gα16 S1P1). In kind it is cell-based. Particulars: relative antagonism vs probing agonist GNF-AC-1 at EC80, HeLa-S1P1/Gα16 cells. The text has this: Human S1P1 Receptor Calcium FLIPR Antagonist Assay
The assay measures intracellular changes of Ca^2+ mediated by the synthetic probing agonist 3-{[2-(2-Trifluoromethyl-biphenyl-4-yl)-benzo[b]thiophen-5-ylmethyl]-amino}-propionic acid (GNF-AC-1) in the HeLa-S1P1/Gα16 cell clone 1: HeLa (human cervix carcinoma, ATCC CCL2) cells stably expressing N-terminally myc-tagged human S1P1 receptors (GenBank™ accession No. NM_001400; UNIPROT P21453) and promiscuous Gα16 protein (GenBank™ accession number M63904, Swissprot P30679) are cultured at 37° C., 5% CO2, and 95% relative humidity. The cells are plated in 384 well black plates (10′000 cells per well). After 24 hours the cells are loaded with Fluo-4-AM (1.6 μM in HBSS and 2.5 mM probenicid) for 1 hour at 37° C. After washing, the cells are transferred to the FLIPR. The test compounds are added at different concentrations (≦100 μM) in HBSS in the presence of 0.1% BSA and changes in fluorescence are recorded (indication of agonism). The probing agonist is added 20-30 minutes afterwards to the wells at a concentration giving 80% of the maximal activity (EC80). After each addition, time points are collected as follows: 20 time points (2 seconds) before the addition of the agonist (Fmin) and 60 time points (1 or 2 seconds) after the addition of the probing agonist. This allows the determination of the maximal fluorescence (Fmax). The ratio (Fmax−Fmin)/Fmin is plotted against the log of the concentration of the test compounds and the IC50 (relative antagonism) is calculated using the XLfit-4 software. […] A concentration-response curve of the probing agonist is determined on each plate in parallel.

Assay [1] concerns peripheral lymphocyte counts. In words: Measurement of circulating lymphocytes after oral administration (mice). Particulars: Mus musculus, C57BL/6NCrl mice, 30 mg/kg p.o., 24 hours, vs mean counts of untreated animals, mean ± STDEV, read-out: Residual Lymphocyte Counts 24 hours after p.o. dosing. In kind it is in vivo. Here is the method: (§1) The compounds of the invention, e.g. compounds of formula (I) typically induce the depletion of blood lymphocyte as may be determined in the assay described below. Moreover, compounds of the invention, e.g. compounds of formula (I) are typically efficacious in the said assay also when administered via the per oral route of administration.
(§2) Measurement of Circulating Lymphocytes:
(§3) The test compounds (or salts thereof) are dissolved in a vehicle such as water, saline, PEG (polyethylene glycol) 200, or PBS (phosphate buffered saline). Adult mice (C57BU6NCrl strain, female, 18-20 g) or rats (Lewis strain, male, 6-12 weeks old) are administered up to 60 mg/kg of the test compounds in 10 ml/kg (C57BU6NCrl mice) or 2 ml/kg (Lewis rats) vehicle via per oral application. The vehicle or a reference salt and FTY720 (0.3 mg/kg) are used as negative and positive controls, respectively. Blood is collected from the sublingual vein at single time points, e.g. 14 or 24 hours after the test compound administration, under short isoflurane anesthesia. Two to three animals are used in each group. Whole blood samples are subjected to hematology analysis. Peripheral lymphocyte counts are determined using an automated analyzer. The Haemathology System uses a combination of light scatter, cytochemical staining and nuclear density on two independent channels to measure the total and differential white cell counts. The reduction of lymphocytes provoked by each test compound is calculated by comparing the lymphocyte counts measured after each treatment to the mean lymphocyte counts measured in five to eight untreated mice or rats, respectively. The data are presented as mean±STDEV.

The subject of assay [2] is peripheral lymphocyte counts. In words: Measurement of circulating lymphocytes after oral administration (rats). In kind it is in vivo. To be noted: Lewis rats, 30 mg/kg p.o., vs mean counts of untreated animals, mean ± STDEV. Here is the method:
as §1, §2, §3

Data on 19 compounds can be found in patent US8791100B2 (Novartis AG, priority 2010, dated 2014).

Sequence of human S1P1 receptors (P21453 whole entry): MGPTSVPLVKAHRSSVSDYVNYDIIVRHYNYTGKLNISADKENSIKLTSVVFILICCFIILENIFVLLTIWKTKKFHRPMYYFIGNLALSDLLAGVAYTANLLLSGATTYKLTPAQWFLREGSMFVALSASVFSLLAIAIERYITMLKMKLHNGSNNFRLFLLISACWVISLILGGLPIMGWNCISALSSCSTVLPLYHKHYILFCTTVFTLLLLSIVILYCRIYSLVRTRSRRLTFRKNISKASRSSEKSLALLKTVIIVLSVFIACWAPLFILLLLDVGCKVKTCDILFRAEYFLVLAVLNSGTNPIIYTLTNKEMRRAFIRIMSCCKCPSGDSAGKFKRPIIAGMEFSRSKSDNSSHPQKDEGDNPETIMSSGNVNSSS

A word on the IC50: it is the concentration at which inhibition is half-maximal. In the case of `Cc1cc([C@H](Nc2ccc(C)c(CN3CC[C@@H](C(=O)O)C3)c2)C(F)(F)F)ccc1Cl` [Example 21, (R)-1-{5-[(S)-1-(4-Chloro-3-methyl-phenyl)-2,22-trifluoro-ethylamino]-2-methyl-benzyl}-pyrrolidine-3-carboxylic acid], the IC50 on human S1P1 receptors was found to be 1 nM. For the same compound, the response vs control in vivo at 30 mg/kg in assay [1] was 17.8%.

As to `CC[C@@H](Nc1ccc(C)c(CN2CC[C@@H](C(=O)O)C2)c1)c1ccc(Cl)c(C)c1` [Example 23, (R)-1-{5-[(R)-1-(4-Chloro-3-methyl-phenyl)-propylamino]-2-methyl-benzyl}-pyrrolidine-3-carboxylic acid], the concentration for half-maximal inhibition (IC50) at human S1P1 receptors was 1 nM. Moreover, the response vs control in vivo at 30 mg/kg in assay [1] is 25.1%.

For the compound `Cc1cc([C@H](Nc2ccc(Cl)c(CN3CC[C@@H](C(=O)O)C3)c2)C(F)(F)F)ccc1Cl` [Example 29, (R)-1-{2-Chloro-5-[(S)-1-(4-chloro-3-methyl-phenyl)-2,2,2-trifluoro-ethylamino]-benzyl}-pyrrolidine-3-carboxylic acid], on human S1P1 receptors, the IC50 came to 0.4 nM. In addition, the response vs control in vivo at 30 mg/kg in assay [1] was 35.6%.

Consider `Cc1cc([C@H](Nc2ccc(C)c(CN3CC[C@@H](C(=O)O)C3)c2C)C(F)(F)F)ccc1Cl` [Example 30, (R)-1-{3-[(S)-1-(4-Chloro-3-methyl-phenyl)-2,2,2-trifluoro-ethylamino]-2,6-dimethyl-benzyl}-pyrrolidine-3-carboxylic acid], for which, on human S1P1 receptors, the concentration for half-maximal inhibition (IC50) came to 0.9 nM. Moreover, the response vs control in vivo at 30 mg/kg in assay [1] turned out to be 19.4%. The “Residual Lymphocyte Counts 24 hours after p.o. dosing” value in assay [2] came to 26.9 ± 13.0%.

For `Cc1cc([C@H](Nc2ccc(C)c(CN3CC(C(=O)O)C3)c2C)C(F)(F)F)ccc1Cl` [Example 31, 1-{3-[(S)-1-(4-Chloro-3-methyl-phenyl)-2,2,2-trifluoro-ethylamino]-2,6-dimethyl-benzyl}-azetidine-3-carboxylic acid], on human S1P1 receptors, the 50% inhibitory concentration (IC50) was found to be 1 nM. In assay [1], the response vs control in vivo at 30 mg/kg was determined as 23.4%.

With `CC[C@@H](Nc1ccc(C)c(CN2CC[C@@H](C(=O)O)C2)c1C)c1ccc(Cl)c(C)c1` [Example 32, (R)-1-{3-[(R)-1-(4-Chloro-3-methyl-phenyl)-propylamino]-2,6-dimethyl-benzyl}-pyrrolidine-3-carboxylic acid], the IC50 at human S1P1 receptors amounted to 0.8 nM. Further, the response vs control in vivo at 30 mg/kg in assay [1] was 17%.

Turning to `CC[C@@H](Nc1ccc(C)c(CN2CC(C(=O)O)C2)c1C)c1ccc(Cl)c(C)c1` [Example 33, 1-{3-[(R)-1-(4-Chloro-3-methyl-phenyl)-propylamino]-2,6-dimethyl-benzyl}-azetidine-3-carboxylic acid], on human S1P1 receptors, the IC50 amounted to 0.6 nM. In assay [1], the response vs control in vivo at 30 mg/kg was found to be 16.2%.

Consider `CCc1ccc(N[C@@H](c2ccc(Cl)c(C)c2)C(F)(F)F)cc1CN1CC[C@@H](C(=O)O)C1` [Example 34, (R)-1-{5-[(S)-1-(4-Chloro-3-methyl-phenyl)-2,2,2-trifluoro-ethylamino]-2-ethyl-benzyl}-pyrrolidine-3-carboxylic acid], for which the half-inhibitory concentration (IC50) at human S1P1 receptors turned out to be 0.8 nM. In assay [1], the response vs control in vivo at 30 mg/kg stood at 24.2%.

For `CC[C@@H](Nc1ccc(C)c(CN2CC(C(=O)O)C2)c1)c1cc(C)c(Cl)c(C)c1` [Example 41, 1-{5-[(R)-1-(4-Chloro-3,5-dimethyl-phenyl)-propylamino]-2-methyl-benzyl}-azetidine-3-carboxylic acid], at human S1P1 receptors, the IC50 came out at 1.3 nM. In addition, in assay [1], the response vs control in vivo at 30 mg/kg came out at 20.2%.

Turning to `CC[C@@H](Nc1ccc(C)c(CN2CC[C@@H](C(=O)O)C2)c1)c1cc(C)c(Cl)c(C)c1` [Example 42, (R)-1-{5-[(R)-1-(4-Chloro-3,5-dimethyl-phenyl)-propylamino]-2-methyl-benzyl}-pyrrolidine-3-carboxylic acid], the half-inhibitory concentration (IC50) on human S1P1 receptors was 1 nM. The response vs control in vivo at 30 mg/kg in assay [1] was 19.4%. For the same compound, the “Residual Lymphocyte Counts 24 hours after p.o. dosing” value in assay [2] was 22.2% ± 6.7.

As to `CC[C@@H](Nc1ccc(Cl)c(CN2CC[C@@H](C(=O)O)C2)c1)c1cc(C)c(Cl)c(C)c1` [Example 43, (R)-1-{2-Chloro-5-[(R)-1-(4-chloro-3,5-dimethyl-phenyl)-propylamino]-benzyl}-pyrrolidine-3-carboxylic acid], the 50% inhibitory concentration (IC50) at human S1P1 receptors worked out at 0.8 nM. The response vs control in vivo at 30 mg/kg in assay [1] was found to be 21.8%.

Take `CC[C@@H](Nc1cc(CN2CC[C@@H](C(=O)O)C2)c(Cl)cn1)c1ccc(Cl)c(C)c1` [Example 55, (R)-1-{5-Chloro-2-[(R)-1-(4-chloro-3-methyl-phenyl)-propylamino]-pyridin-4-ylmethyl}-pyrrolidine-3-carboxylic acid]: the half-inhibitory concentration (IC50) on human S1P1 receptors was 0.5 nM. Besides, the response vs control in vivo at 30 mg/kg in assay [1] turned out to be 43.6%.

In the case of `CC[C@@H](Nc1ccc(Cl)c(CN2CC(C(=O)O)C2)c1)c1cc(C)c(Cl)c(C)c1` [Example 61, 1-{2-Chloro-5-[(R)-1-(4-chloro-3,5-dimethyl-phenyl)-propylamino]-benzyl}-azetidine-3-carboxylic acid], the IC50 on human S1P1 receptors is 1.6 nM. Moreover, the response vs control in vivo at 30 mg/kg in assay [1] was 16.2%.

`CC[C@@H](Nc1ccc(Cl)c(CN2CC(C(=O)O)C2)c1)c1ccc(Cl)c(C)c1` [Example 62, 1-{2-Chloro-5-[(R)-1-(4-chloro-3-methyl-phenyl)-propylamino]-benzyl}-azetidine-3-carboxylic acid]: the half-maximal inhibitory concentration (IC50) on human S1P1 receptors came to 0.9 nM. Also, the response vs control in vivo at 30 mg/kg in assay [1] worked out at 31.5%.

On to `Cc1cc([C@H](Nc2ccc(Cl)c(CN3CC(C)(C(=O)O)C3)c2)C(F)(F)F)ccc1Cl` [Example 65, 1-{2-Chloro-5-[(S)-1-(4-chloro-3-methyl-phenyl)-2,2,2-trifluoro-ethylamino]-benzyl}-3-methyl-azetidine-3-carboxylic acid], for which the IC50 at human S1P1 receptors was 0.2 nM. Moreover, the response vs control in vivo at 30 mg/kg in assay [1] was determined as 22.6%.

With `CC[C@@H](Nc1ccc(Cl)c(CN2CC(C)(C(=O)O)C2)c1)c1cc(C)c(Cl)c(C)c1` [Example 66, 1-{2-Chloro-5-[(R)-1-(4-chloro-3,5-dimethyl-phenyl)-propylamino]-benzyl}-3-methyl-azetidine-3-carboxylic acid], in assay [1], the response vs control in vivo at 30 mg/kg came out at 19.4%.

As to `Cc1cc([C@H](Nc2ccc(C)c(CN3CC(C(=O)O)C3)c2)C(F)(F)F)ccc1Cl` [Example 70, 1-{5-[(S)-1-(4-Chloro-3-methyl-phenyl)-2,2,2-trifluoro-ethylamino]-2-methyl-benzyl}-azetidine-3-carboxylic acid], at human S1P1 receptors, the IC50 was determined as 0.1 nM. In addition, the response vs control in vivo at 30 mg/kg in assay [1] was determined as 20.2%.

Consider `Cc1cc([C@H](Nc2cc(CN3CC[C@@H](C(=O)O)C3)c(Cl)cn2)C(F)(F)F)ccc1Cl` [Example 84, (R)-1-{5-Chloro-2-[(S)-1-(4-chloro-3-methyl-phenyl)-2,2,2-trifluoro-ethylamino]-pyridin-4-ylmethyl}-pyrrolidine-3-carboxylic acid], for which the IC50 on human S1P1 receptors is 0.4 nM. Moreover, the “Residual Lymphocyte Counts 24 hours after p.o. dosing” value in assay [2] is on record as 16.8% ± 7.2.

`Cc1cc([C@H](Nc2cc(CNCCC(=O)O)c(Cl)cn2)C(F)(F)F)ccc1Cl` [Example 85, 3-({5-Chloro-2-[(S)-1-(4-chloro-3-methyl-phenyl)-2,2,2-trifluoro-ethylamino]-pyridin-4-ylmethyl}-amino)-propionic acid]: at human S1P1 receptors, the IC50 worked out at 0.9 nM. Besides, the “Residual Lymphocyte Counts 24 hours after p.o. dosing” value in assay [2] was 11.6% ± 0.3.
